Data taken from ChEMBL document CHEMBL4196007, “Design, synthesis and biological evaluation of novel 4-aminoquinazolines as dual target inhibitors of EGFR-PI3Kα” (Eur J Med Chem, 2018).
Calls of active or inactive are those of the source. The rule behind the calls is not given here.

Experiments:
A549 = assay: Cytotoxicity against human A549 cells after 72 hrs by SRB assay; type: functional, cell-based; conditions: A549, 72 h
[1] = target: Phosphatidylinositol 4,5-bisphosphate 3-kinase catalytic subunit beta isoform (Homo sapiens, UniProt P42338); assay: Inhibition of PI3K p110beta (unknown origin) using PIP2 as substrate by ELISA
BT-549 [2] = assay: Cell cycle arrest in human BT549 cells assessed as accumulation of cells at G1 phase at 5 uM after 24 hrs by propidium iodide staining-based flow cytometric analysis (reference value: 55.93%); type: functional
BT-549 [3] = assay: Inhibition of colony formation in human BT549 cells assessed as colony formation rate at 2.5 uM after 2 weeks by crystal violet staining-based assay relative to control; type: functional; set-up: scale not given: the % may be the effect or the level left
BT-549 [4] = assay: Inhibition of colony formation in human BT549 cells assessed as colony formation rate at 5 uM after 2 weeks by crystal violet staining-based assay relative to control; type: functional; set-up: scale not given: the % may be the effect or the level left
BT-549 [5] = assay: Inhibition of colony formation in human BT549 cells after 2 weeks by crystal violet staining-based assay; type: functional, cell-based
BT-549 [6] = assay: Cytotoxicity against human BT549 cells after 72 hrs by SRB assay; type: functional, cell-based; conditions: BT-549, 72 h
BT-549 [7] = assay: Cell cycle arrest in human BT549 cells assessed as accumulation of cells at G2 phase at 1 uM after 24 hrs by propidium iodide staining-based flow cytometric analysis (reference value: 18.96%); type: functional
BT-549 [8] = assay: Cell cycle arrest in human BT549 cells assessed as accumulation of cells at G1 phase at 1 uM after 24 hrs by propidium iodide staining-based flow cytometric analysis (reference value: 55.93%); type: functional
BT-549 [9] = assay: Induction of apoptosis in human BT549 cells assessed as nuclear fragmentation at 1 to 5 uM after 24 hrs by DAPI staining-based fluorescence microscopic analysis; type: functional, cell-based
[10] = target: Phosphatidylinositol 4,5-bisphosphate 3-kinase catalytic subunit alpha isoform (Homo sapiens, UniProt P42336); assay: Inhibition of PI3K p110alpha (unknown origin) using PIP2 as substrate by ELISA
MCF7 = assay: Cytotoxicity against human MCF7 cells after 72 hrs by SRB assay; type: functional, cell-based; conditions: MCF7, 72 h
BT-549 [11] = assay: Induction of apoptosis in human BT549 cells assessed as early apoptotic cells at 1 uM by Annexin V-FITC/propidium iodide staining-based flow cytometric analysis relative to control; type: functional
Homo sapiens = organism: Homo sapiens; assay: Inhibition of PI3K in human BT549 cells assessed as decrease in Akt phosphorylation at Ser473 by Western blot analysis; type: cell-based
BT-549 [12] = assay: Cell cycle arrest in human BT549 cells assessed as accumulation of cells at G1 phase after 24 hrs by propidium iodide staining-based flow cytometric analysis; type: functional
BT-549 [13] = assay: Cell cycle arrest in human BT549 cells assessed as accumulation of cells at G2 phase at 2.5 uM after 24 hrs by propidium iodide staining-based flow cytometric analysis (reference value: 18.96%); type: functional
SNU-638 = assay: Cytotoxicity against human SNU638 cells after 72 hrs by SRB assay; type: functional, cell-based; conditions: SNU-638, 72 h
BT-549 [14] = assay: Cell cycle arrest in human BT549 cells assessed as accumulation of cells at S phase at 1 uM after 24 hrs by propidium iodide staining-based flow cytometric analysis (reference value: 25.10%); type: functional
BT-549 [15] = assay: Induction of apoptosis in human BT549 cells assessed as early apoptotic cells at 2.5 uM by Annexin V-FITC/propidium iodide staining-based flow cytometric analysis relative to control; type: functional
HCT-116 = assay: Cytotoxicity against human HCT116 cells after 72 hrs by SRB assay; type: functional, cell-based; conditions: HCT-116, 72 h
BT-549 [16] = assay: Induction of apoptosis in human BT549 cells assessed as late apoptotic cells at 5 uM by Annexin V-FITC/propidium iodide staining-based flow cytometric analysis relative to control; type: functional
BT-549 [17] = assay: Cell cycle arrest in human BT549 cells assessed as accumulation of cells at G2 phase at 5 uM after 24 hrs by propidium iodide staining-based flow cytometric analysis (reference value: 18.96%); type: functional
BT-549 [18] = assay: Induction of apoptosis in human BT549 cells assessed as early apoptotic cells at 5 uM by Annexin V-FITC/propidium iodide staining-based flow cytometric analysis relative to control; type: functional
SK-HEP1 = assay: Cytotoxicity against human SKHEP1 cells after 72 hrs by SRB assay; type: functional, cell-based; conditions: SK-HEP1, 72 h
BT-549 [19] = assay: Cell cycle arrest in human BT549 cells assessed as accumulation of cells at S phase at 5 uM after 24 hrs by propidium iodide staining-based flow cytometric analysis (reference value: 25.10%); type: functional
BT-549 [20] = assay: Cell cycle arrest in human BT549 cells assessed as accumulation of cells at G1 phase at 2.5 uM after 24 hrs by propidium iodide staining-based flow cytometric analysis (reference value: 55.93%); type: functional
BT-549 [21] = assay: Induction of apoptosis in human BT549 cells assessed as late apoptotic cells at 2.5 uM by Annexin V-FITC/propidium iodide staining-based flow cytometric analysis relative to control; type: functional
BT-549 [22] = assay: Induction of apoptosis in human BT549 cells assessed as chromatin condensation at 1 to 5 uM after 24 hrs by DAPI staining-based fluorescence microscopic analysis; type: functional, cell-based
[23] = target: T1, Phosphatidylinositol 4,5-bisphosphate 3-kinase catalytic subunit delta isoform (Homo sapiens, UniProt O00329); assay: Inhibition of PI3K p110delta (unknown origin) using PIP2 as substrate by ELISA
T1 sequence (O00329 whole entry): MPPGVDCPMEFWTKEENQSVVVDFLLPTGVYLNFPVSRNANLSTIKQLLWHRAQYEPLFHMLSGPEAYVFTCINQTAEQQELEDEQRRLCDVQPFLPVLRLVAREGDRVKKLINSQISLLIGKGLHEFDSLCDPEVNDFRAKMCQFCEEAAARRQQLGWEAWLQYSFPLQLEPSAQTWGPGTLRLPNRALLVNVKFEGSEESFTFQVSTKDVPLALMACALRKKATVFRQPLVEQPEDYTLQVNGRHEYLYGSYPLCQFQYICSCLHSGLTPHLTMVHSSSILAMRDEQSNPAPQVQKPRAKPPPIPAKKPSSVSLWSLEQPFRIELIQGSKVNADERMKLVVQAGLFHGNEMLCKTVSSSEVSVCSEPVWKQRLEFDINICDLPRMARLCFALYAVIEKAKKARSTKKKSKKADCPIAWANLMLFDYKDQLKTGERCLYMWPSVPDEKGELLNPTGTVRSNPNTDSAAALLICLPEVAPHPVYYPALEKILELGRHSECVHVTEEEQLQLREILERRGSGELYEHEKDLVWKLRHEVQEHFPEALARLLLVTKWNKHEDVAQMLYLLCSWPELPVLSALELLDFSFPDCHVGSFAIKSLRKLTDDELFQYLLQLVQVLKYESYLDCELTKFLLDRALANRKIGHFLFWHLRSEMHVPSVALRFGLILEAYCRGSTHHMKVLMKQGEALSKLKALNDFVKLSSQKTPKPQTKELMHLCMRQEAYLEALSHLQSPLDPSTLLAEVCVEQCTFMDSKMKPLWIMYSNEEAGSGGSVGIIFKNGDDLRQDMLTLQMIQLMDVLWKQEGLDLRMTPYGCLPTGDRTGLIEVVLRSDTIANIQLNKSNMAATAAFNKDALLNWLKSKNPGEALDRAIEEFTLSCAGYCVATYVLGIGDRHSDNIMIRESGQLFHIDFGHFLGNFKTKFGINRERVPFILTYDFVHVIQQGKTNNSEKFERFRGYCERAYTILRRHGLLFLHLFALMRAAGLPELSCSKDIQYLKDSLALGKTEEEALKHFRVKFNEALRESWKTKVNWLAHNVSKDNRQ

[24] = target: Phosphatidylinositol 4,5-bisphosphate 3-kinase catalytic subunit gamma isoform (Homo sapiens, UniProt P48736); assay: Inhibition of PI3K p110gamma (unknown origin) using PIP2 as substrate by ELISA
BT-549 [25] = assay: Induction of apoptosis in human BT549 cells assessed as late apoptotic cells at 1 uM by Annexin V-FITC/propidium iodide staining-based flow cytometric analysis relative to control; type: functional
BT-549 [26] = assay: Cell cycle arrest in human BT549 cells assessed as accumulation of cells at S phase at 2.5 uM after 24 hrs by propidium iodide staining-based flow cytometric analysis (reference value: 25.10%); type: functional

Sequence of Phosphatidylinositol 4,5-bisphosphate 3-kinase catalytic subunit alpha isoform (P42336 whole entry, canonical isoform): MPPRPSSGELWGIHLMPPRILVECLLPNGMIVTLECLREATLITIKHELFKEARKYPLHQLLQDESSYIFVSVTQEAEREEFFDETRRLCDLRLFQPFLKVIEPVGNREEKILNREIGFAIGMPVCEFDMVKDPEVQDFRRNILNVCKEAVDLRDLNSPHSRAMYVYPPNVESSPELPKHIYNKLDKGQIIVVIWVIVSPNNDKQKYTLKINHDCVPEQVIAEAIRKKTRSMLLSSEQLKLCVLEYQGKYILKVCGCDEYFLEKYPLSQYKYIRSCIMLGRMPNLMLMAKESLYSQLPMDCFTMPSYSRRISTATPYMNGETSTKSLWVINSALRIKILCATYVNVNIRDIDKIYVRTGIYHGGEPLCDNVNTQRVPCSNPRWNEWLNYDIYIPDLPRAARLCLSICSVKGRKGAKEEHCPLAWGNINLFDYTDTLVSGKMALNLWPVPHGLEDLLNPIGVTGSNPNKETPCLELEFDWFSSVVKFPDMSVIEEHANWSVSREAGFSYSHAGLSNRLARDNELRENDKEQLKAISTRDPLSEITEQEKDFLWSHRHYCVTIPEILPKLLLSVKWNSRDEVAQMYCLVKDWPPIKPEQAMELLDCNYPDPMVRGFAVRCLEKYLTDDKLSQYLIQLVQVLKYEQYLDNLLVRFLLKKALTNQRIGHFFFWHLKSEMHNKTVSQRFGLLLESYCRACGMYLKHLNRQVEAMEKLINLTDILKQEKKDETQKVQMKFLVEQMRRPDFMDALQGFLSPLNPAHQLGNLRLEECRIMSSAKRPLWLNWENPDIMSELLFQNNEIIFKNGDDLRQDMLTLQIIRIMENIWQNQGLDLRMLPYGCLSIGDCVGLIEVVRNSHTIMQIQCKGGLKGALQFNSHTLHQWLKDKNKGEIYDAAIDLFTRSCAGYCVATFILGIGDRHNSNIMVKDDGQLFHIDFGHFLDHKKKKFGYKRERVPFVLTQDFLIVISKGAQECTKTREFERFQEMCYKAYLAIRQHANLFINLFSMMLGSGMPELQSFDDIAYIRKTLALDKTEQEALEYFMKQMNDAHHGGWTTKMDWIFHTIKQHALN
Sequence of Phosphatidylinositol 4,5-bisphosphate 3-kinase catalytic subunit gamma isoform (P48736 whole entry, canonical isoform): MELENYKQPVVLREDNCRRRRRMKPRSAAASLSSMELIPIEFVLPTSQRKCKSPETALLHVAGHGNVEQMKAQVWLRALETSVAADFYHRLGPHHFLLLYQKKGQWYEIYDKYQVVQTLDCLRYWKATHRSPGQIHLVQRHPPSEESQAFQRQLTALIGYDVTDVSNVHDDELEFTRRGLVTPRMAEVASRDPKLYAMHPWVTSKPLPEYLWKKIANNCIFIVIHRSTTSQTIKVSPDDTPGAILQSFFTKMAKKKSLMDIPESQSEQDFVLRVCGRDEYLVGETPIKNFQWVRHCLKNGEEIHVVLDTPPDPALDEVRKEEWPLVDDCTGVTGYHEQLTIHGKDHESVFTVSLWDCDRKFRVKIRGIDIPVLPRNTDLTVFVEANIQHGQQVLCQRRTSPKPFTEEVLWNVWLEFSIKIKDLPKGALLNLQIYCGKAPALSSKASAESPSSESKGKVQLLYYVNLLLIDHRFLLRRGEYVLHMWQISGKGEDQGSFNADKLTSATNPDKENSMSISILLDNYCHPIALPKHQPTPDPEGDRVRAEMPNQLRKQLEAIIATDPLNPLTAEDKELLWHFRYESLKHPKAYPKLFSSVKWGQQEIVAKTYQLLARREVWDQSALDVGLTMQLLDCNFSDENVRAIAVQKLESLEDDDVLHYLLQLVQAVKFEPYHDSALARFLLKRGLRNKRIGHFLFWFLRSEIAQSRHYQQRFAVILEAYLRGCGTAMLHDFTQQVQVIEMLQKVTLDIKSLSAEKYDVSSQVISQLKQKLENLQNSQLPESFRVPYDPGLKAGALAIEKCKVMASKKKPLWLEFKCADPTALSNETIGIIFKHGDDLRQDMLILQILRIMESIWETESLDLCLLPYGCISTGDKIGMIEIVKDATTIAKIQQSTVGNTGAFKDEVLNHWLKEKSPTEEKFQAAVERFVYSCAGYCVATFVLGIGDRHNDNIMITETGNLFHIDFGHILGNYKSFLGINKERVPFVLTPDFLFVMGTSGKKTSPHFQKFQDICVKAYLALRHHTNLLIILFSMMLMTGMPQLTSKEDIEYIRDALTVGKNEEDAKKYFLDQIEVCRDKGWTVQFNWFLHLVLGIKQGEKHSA
Sequence of Phosphatidylinositol 4,5-bisphosphate 3-kinase catalytic subunit beta isoform (P42338 whole entry, canonical isoform): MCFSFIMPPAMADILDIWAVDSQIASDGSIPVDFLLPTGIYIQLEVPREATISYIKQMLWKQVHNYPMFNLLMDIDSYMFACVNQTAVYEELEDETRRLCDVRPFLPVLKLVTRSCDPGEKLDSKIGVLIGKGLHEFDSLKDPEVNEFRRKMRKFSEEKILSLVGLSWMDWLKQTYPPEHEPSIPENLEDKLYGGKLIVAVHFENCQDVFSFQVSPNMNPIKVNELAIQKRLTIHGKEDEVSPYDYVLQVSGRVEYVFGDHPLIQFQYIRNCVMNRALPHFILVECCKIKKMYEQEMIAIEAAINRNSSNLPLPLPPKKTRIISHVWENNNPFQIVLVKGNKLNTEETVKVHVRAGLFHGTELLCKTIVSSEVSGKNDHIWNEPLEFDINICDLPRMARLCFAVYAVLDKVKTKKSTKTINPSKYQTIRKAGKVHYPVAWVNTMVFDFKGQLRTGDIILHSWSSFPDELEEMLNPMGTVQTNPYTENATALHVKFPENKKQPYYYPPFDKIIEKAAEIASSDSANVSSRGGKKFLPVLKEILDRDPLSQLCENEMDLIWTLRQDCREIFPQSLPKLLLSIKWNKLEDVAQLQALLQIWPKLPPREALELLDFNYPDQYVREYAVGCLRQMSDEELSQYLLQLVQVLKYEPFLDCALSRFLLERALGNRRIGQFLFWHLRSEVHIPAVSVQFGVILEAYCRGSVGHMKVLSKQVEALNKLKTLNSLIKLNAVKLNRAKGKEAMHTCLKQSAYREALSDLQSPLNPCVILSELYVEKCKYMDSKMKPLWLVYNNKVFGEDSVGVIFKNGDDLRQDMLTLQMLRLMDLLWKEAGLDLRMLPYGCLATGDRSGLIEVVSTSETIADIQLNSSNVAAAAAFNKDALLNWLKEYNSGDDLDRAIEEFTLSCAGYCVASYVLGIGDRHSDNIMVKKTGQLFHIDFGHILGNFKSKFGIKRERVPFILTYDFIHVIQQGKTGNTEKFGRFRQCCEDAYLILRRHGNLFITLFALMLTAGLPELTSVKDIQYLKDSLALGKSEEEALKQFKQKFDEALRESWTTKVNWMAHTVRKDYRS

With CCS(=O)(=O)Nc1cc(-c2ccc3ncnc(Nc4ccc(F)c(Cl)c4)c3c2)cnc1OC the IC50 (A549) was 8.23 µM, the IC50 [1] was 9.41 µM and the Activity (BT-549 [2]) was 80.7%. For the same compound, the Activity (BT-549 [3]) was 55.6%, the Activity (BT-549 [4]) was 25.7% and the inhibition (BT-549 [5]) was “Dose-dependent effect”. For the same compound, the IC50 (BT-549 [6]) was 1.02 µM, the Activity (BT-549 [7]) was 24.16% and the Activity (BT-549 [8]) was 69.31%. For the same compound, the Activity (BT-549 [9]) was “Active”, the IC50 [10] was 0.317 µM and the IC50 (MCF7) was 5.59 µM. The Activity (BT-549 [11]) was 30.52%, the inhibition (Homo sapiens) was “Dose-dependent effect” and the Activity (BT-549 [12]) was “Dose-dependent effect”. The Activity (BT-549 [13]) was 17.77%, the IC50 (SNU-638) was 4.1 µM and the Activity (BT-549 [14]) was 6.52%. The Activity (BT-549 [15]) was 56.69%, the IC50 (HCT-116) was 5.6 µM and the Activity (BT-549 [16]) was 2.27%. The Activity (BT-549 [17]) was 18.37%, the Activity (BT-549 [18]) was 54.71% and the IC50 (SK-HEP1) was 6.1 µM. The Activity (BT-549 [19]) was 0.92%, the Activity (BT-549 [20]) was 75.36% and the Activity (BT-549 [21]) was 2.05%. The Activity (BT-549 [22]) was “Active”, the IC50 [23] was 8.67 µM and the IC50 [24] was 3.56 µM. It also gave an Activity (BT-549 [25]) of 1.79% and an Activity (BT-549 [26]) of 6.86%.
